This is an account of results in patent publication US4419358A, “Isethionic acid salt of 9-cyclohexyl-2-propoxy-9H-purine-6-amine and compositions containing an effective bronchodilating concentration of it” (Mead Johnson & Company, priority 1981, dated 1983).

What all share (format): physicochemical
Data set [1] is described as follows: Water solubility of salts of MJ 13156 (Table 1, Method A or B). The conditions noted are these: for Solubility: room temperature (about 25° C.). Here is the method:
More conventional pharmaceutically acceptable acid addition salts of MJ 13156 are not well suited for the present use due to a limited solubility and, in some cases, lack of stability.
^1 Solubility data obtained using one of two methods:
Solubilities of isolated salts determined in standard manner by adding
H2 O to weighed salt samples and directly obtaining solubility data.
Solubilities of salts prepared in situ determined by adding a
moleequivalent of each acid to a 140 mg sample of MJ 13156 and then
diluting with H2 O in increments to 2.5 mg/mL. A second
moleequivalent of acid was added to each sample and allowed to stand
overnight. The precipitates were collected, dried, and weighed to obtain

Data set [2] is described as follows: Dissociation of salts/solvates in water. On the procedure:
(§1) Preparation of the isethionate salt of MJ 13156 is carried out by treating an equivalent of base in ethyl acetate with 2 equivalents of isethionic acid in ethanol-ethyl acetate solution. Chilling the mixture yields the salt which is collected by filtration. The salt can similarly be prepared by using more concentration solutions of both the acid and the base in ethanol.

The nature of data set [3]: Basicity (ability of MJ 13156 to form salts with weak acids). As to conditions: gluconic, lactobionic, acetic, and levulinic acids. On the procedure:
as §1

Setting [4] is: Method B: salts prepared in situ from 140 mg MJ 13156, second moleequivalent of acid added, overnight.
Setting [5] is: listed as methanesulfonate salt.
Where [6] appears, read: Method A: H2O added to weighed samples of isolated salts.

SMILES strings stand for the structures. Like-named read-outs stand apart in the source and are kept apart here.

The term Solubility denotes how much of the substance goes into solution per volume. As for `CCCOc1nc(N)c2ncn(C3CCCCC3)c2n1` [sulfuric], the Solubility in data set [1] (setting [4]) is 800 µg/mL.
For the compound `CCCOc1nc(N)c2ncn(C3CCCCC3)c2n1` [acetic acid solvate], the “dissociation in water (in words)” value in data set [2] is recorded as “dissociated in water to give MJ 13156 base”.
As to `CCCOc1nc(N)c2ncn(C3CCCCC3)c2n1` [methanesulfonic], the “dissociation in water (in words)” value in data set [2] (setting [5]) is recorded as “dissociates moderately in water”. Moreover, the Solubility in data set [1] (setting [6]) came out at 8000 µg/mL. Also, in data set [1] (setting [5]), the “water solubility (in words)” value was “reasonable water solubility”.
With `CCCOc1nc(N)c2ncn(C3CCCCC3)c2n1` [hydrochloric], the Solubility in data set [1] (setting [6]) came out at 1400 µg/mL.
On to `CCCOc1nc(N)c2ncn(C3CCCCC3)c2n1` [phosphoric], for which the Solubility in data set [1] (setting [4]) worked out at 1300 µg/mL.
Turning to `CCCOc1nc(N)c2ncn(C3CCCCC3)c2n1` [isethionic, 9-Cyclohexyl-2-propoxy-9H-purine-6-amine 2-Hydroxyethanesulfonate], the Solubility in data set [1] (setting [6]) was 100000 µg/mL. In addition, in data set [1] (listed as isethionate salt), the “water solubility (in words)” value is on record as “clearly the most soluble of all those prepared”.
As to `CCCOc1nc(N)c2ncn(C3CCCCC3)c2n1` [MJ 13156, 9-cyclohexyl-2-propoxy-9H-purine-6-amine], in data set [3], the “base strength (in words)” value is “too weak a base to form a salt with these acids”.
As for `CCCOc1nc(N)c2ncn(C3CCCCC3)c2n1` [nitric], the Solubility in data set [1] (setting [4]) is 2400 µg/mL.
As for `CCCOc1nc(N)c2ncn(C3CCCCC3)c2n1` [hydrobromic], the Solubility in data set [1] (setting [4]) turned out to be 1600 µg/mL.
In the case of `CC(=O)CCC(=O)O` [levulinic acid], the “dissociation in water (in words)” value in data set [2] is on record as “dissociated in water to give MJ 13156 base”.
